In publication PMC12525602, “Identification of Selective α-Glucosidase Inhibitors via Virtual Screening with Machine Learning” (Molecules, 2025):
Read-outs that look alike come from different tables or passages of the source.

Tests used:
α-amylase = biological target: T1, α-amylase (Sus scrofa, UniProt P00690); assay: In vitro α-amylase activity assay (G3-CNP, absorbance 405 nm); type: biochemical, porcine; set-up: inhibition of α-amylase: dose or concentration left out as unconfirmed; conditions: for inhibition of α-amylase: […] µM
T1 construct: α-amylase isolated from porcine pancreas; purchased Sigma-Aldrich Co. (St. Louis, MI, USA); host or cells: porcine pancreas
T1 sequence (P00690 16-511): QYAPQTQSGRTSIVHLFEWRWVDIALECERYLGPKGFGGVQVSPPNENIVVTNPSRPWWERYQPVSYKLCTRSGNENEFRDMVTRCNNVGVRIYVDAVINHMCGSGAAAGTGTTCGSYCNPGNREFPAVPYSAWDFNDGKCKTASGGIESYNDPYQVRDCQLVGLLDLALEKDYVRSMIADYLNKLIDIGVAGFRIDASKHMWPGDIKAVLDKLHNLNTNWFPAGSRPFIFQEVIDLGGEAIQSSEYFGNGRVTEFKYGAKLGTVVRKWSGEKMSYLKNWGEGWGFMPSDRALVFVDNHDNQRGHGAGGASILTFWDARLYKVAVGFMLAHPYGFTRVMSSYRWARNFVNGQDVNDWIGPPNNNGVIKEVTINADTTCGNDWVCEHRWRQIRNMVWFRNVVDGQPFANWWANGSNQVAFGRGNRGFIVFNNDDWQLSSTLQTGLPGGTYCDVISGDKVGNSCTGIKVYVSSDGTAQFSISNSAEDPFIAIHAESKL
Experimental: (§1) The inhibitors used in this study were purchased from the ChemDiv website. Unless otherwise stated, all other reagents used in this experiment were analytically pure reagents purchased from Sigma-Aldrich Co. (St. Louis, MI, USA).
The in vitro α-amylase activity assay was determined spectrophotometrically as previously described with only minor modifications. A phosphate-buffer solution at pH 6.8 was configured to obtain α-amylase 5 U/mL and 2-chloro-4-nitrophenyl α-D-maltotrioside (G3-CNP) 0.6 mM. […] Gradient dilution with phosphate-buffer solution was performed to obtain sample solutions of different concentrations.
(§2) The IC50 values of the tested compounds were calculated using nonlinear fitting (logit method).

α-glucosidase [1] = biological target: T2, α-glucosidase (Saccharomyces cerevisiae, UniProt P53341); assay: biochemical; type: biochemical
T2 construct: purchased Sigma-Aldrich Co. (St. Louis, MI, USA)
T2 sequence (P53341 whole entry): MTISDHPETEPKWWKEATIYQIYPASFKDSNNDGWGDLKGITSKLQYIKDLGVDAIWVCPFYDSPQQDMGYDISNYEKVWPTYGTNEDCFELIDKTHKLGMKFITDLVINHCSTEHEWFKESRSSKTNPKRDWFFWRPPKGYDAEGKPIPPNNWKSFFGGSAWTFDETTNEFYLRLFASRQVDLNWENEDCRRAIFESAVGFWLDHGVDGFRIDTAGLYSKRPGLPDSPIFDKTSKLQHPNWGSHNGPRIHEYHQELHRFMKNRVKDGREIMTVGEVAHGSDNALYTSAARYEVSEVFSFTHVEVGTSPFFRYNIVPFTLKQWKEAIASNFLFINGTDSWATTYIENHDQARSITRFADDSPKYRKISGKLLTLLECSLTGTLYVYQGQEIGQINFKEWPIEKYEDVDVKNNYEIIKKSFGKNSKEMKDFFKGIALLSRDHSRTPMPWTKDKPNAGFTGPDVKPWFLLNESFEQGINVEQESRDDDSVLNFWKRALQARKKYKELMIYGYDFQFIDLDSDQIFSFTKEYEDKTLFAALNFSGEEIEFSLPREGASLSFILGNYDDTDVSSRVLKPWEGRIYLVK
Experimental: To further investigate the inhibition kinetics of the candidate compounds, α-glucosidase activity was determined at different substrate concentrations. The Lineweaver-Burk expression method in Equation (1) was used to test the reaction of a series of compounds with the substrate pNαGP, and the values of maximum velocity (Vmax) and Michaelis-Menten constant (Km) were calculated.(1) 1/v=Km/Vmax1/[S]+1/Vmax where Vmax and Km are the maximum velocity of the enzyme and the Michaelis-Menten constant in the absence of inhibitor, respectively. [S] is the concentration of substrate and inhibitor.(2) Slope=Km/Vmax+Km/Vmax·KiI where v is the initial reaction rate, Vmax is the maximum initial reaction rate, [I] is the concentration of […], and Km is the Michaelis-Menten constant.

α-glucosidase [2] = biological target: T2, α-glucosidase; assay: Fluorescence quenching experiment (Stern-Volmer); type: binding; conditions: for Kd: Ka (binding constant); for Kq (bimolecular quenching constant): given as number×10 with exponent 12
Experimental: The fluorescence quenching experiment was modified somewhat based on previous studies. Fluorescence was determined by titrating α-glucosidase (1.0 mL, 2 U/mL) with different concentrations of inhibited solutions (1.0 mL, 0–200 mM) and left to equilibrate for 5 min. […] Fluorescence burst analysis was performed based on the Stern-Volmer (3) equation.(3) F0/F=1+Kqτ0Q=1+KsvQ
F and F0 are the fluorescence intensities with and without inhibitor, respectively, Ksv is the Stern-Volmer bursting constant, Kq is the bimolecular bursting constant, and [Q] is the concentration of inhibitor.
When the bursting mode conforms to static bursting, the binding constant Ka and the number of binding sites for each enzyme can be calculated from Equation (4).(4) logF0−F/F=logKa+nlogQ
Ka is the binding constant and n is the number of binding sites.
The thermodynamic parameters ∆H, ∆S, and ∆G denote the change in heat, entropy, and free energy, respectively.

α-glucosidase [3] = biological target: T2, α-glucosidase; assay: In vitro α-glucosidase activity assay (pNαGP, absorbance 405 nm); type: biochemical; conditions: for inhibition at 250 µM: read-out: inhibition of α-glucosidase
Experimental: as §1
The in vitro α-glucosidase activity assay was determined spectrophotometrically as previously described with only minor modifications. A phosphate-buffer solution at pH 6.8 was configured to obtain 0.5 U/mL of α-glucosidase and 0.6 mM of […] (pNαGP). […] Gradient dilution with phosphate-buffer solution was performed to obtain sample solutions of different concentrations. First, different concentrations of compounds (10 µL), enzyme solution (40 µL) and potassium phosphate buffer (100 µL) were pre-incubated in a 96-well plate for 10 min at 37 °C. Then, 50 µL of substrate (pNαGP, 0.6 mM) was added to each microtiter well and incubated for 20 min at 37 °C, and the absorbance at 405 nm was measured to detect the change in enzyme activity.
The enzyme inhibitory activity of the tested compounds was calculated as follows: α−glucosidase inhibition rate%=Abs control−Abs sample/Abs control×100
as §2

α-glucosidase [4] = biological target: T2, α-glucosidase; assay: Synchronous fluorescence spectroscopy (RSQF); type: binding
Experimental: Changes in the microenvironment of tyrosine (Tyr) and tryptophan (Trp) residue fluorophores were detected simultaneously. The excitation and emission wavelength intervals were set to 15 nm and 60 nm, respectively, and the synchronized fluorescence spectra from 260 to 320 nm were determined. The synchronized fluorescence burst ratio (RSFQ) was calculated as follows:(7) RSQF=1−F/F0

α-glucosidase [5] = conditions: cited from earlier work
[6] = activity label of the 300-compound modeling dataset, Table S5
[7] = activity label of the modeling dataset, sheet Table S5, 1 = active, 0 = inactive

O=[N+]([O-])c1ccccc1C1Oc2ccccc2C2CC(c3ccccc3)=NN21 (stereo not shown) [K411]
IC50 (α-amylase): > 500 µM
inhibition of α-amylase (α-amylase): minimal inhibition
Ki (α-glucosidase [1]): 61.3 ± 14.4 µM
Type of inhibition (α-glucosidase [1]): Competitive
Vmax (α-glucosidase [1]; [I] 7.5 μM): 8.94±0.06 ×10-1µM/min
Vmax (α-glucosidase [1]; [I] 15 μM): 8.85±0.02 ×10-1µM/min
Vmax (α-glucosidase [1]; [I] 30 μM): 8.62±0.04 ×10-1µM/min
Vmax (α-glucosidase [1]; [I] 50 μM): 8.81±0.03 ×10-1µM/min
Vmax (α-glucosidase [1]; [I] 70 μM): 8.43±0.04 ×10-1µM/min
Kd (α-glucosidase [2]; T 300.15 K): 1.98 µM
Kd (α-glucosidase [2]; T 305.15 K): 2.07 µM
Kd (α-glucosidase [2]; T 310.15 K): 3.91 µM
Ksv (quenching constant) (α-glucosidase [2]; T 300.15 K): 10.50 ±0.01 104 /M
n (number of binding sites) (α-glucosidase [2]; T 300.15 K): 1.15
Ksv (quenching constant) (α-glucosidase [2]; T 305.15 K): 7.67 ±0.01 104 /M
n (number of binding sites) (α-glucosidase [2]; T 305.15 K): 1.17
Kq (bimolecular quenching constant) (α-glucosidase [2]; T 305.15 K): 7.67 ×10^12 (M·S)-1
Ksv (quenching constant) (α-glucosidase [2]; T 310.15 K): 5.51 ±0.01 104 /M
n (number of binding sites) (α-glucosidase [2]; T 310.15 K): 1.15
Kq (bimolecular quenching constant) (α-glucosidase [2]; T 310.15 K): 5.51 ×10^12 (M·S)-1
IC50 (α-glucosidase [3]): 67.8 ± 2.18 µM
inhibition at 250 µM (α-glucosidase [3]): ~100%
RSQF values, Trp (Δλ = 60 nm) versus Tyr (Δλ = 15 nm) (α-glucosidase [4]): significantly higher

O=C1Nc2ccc(Br)cc2/C1=C\c1nc2ccccc2c(=O)n1-c1ccc(C(=O)O)cc1 [K413]
IC50 (α-amylase): > 500 µM
inhibition of α-amylase (α-amylase): minimal inhibition
Ki (α-glucosidase [1]): 59.7 ± 10.6 µM
Type of inhibition (α-glucosidase [1]): Competitive
Vmax (α-glucosidase [1]; [I] 7.5 μM): 11.41±0.04 ×10-1µM/min
Vmax (α-glucosidase [1]; [I] 15 μM): 11.35±0.08 ×10-1µM/min
Vmax (α-glucosidase [1]; [I] 30 μM): 10.92±0.06 ×10-1µM/min
Vmax (α-glucosidase [1]; [I] 50 μM): 10.84±0.07 ×10-1µM/min
Kd (α-glucosidase [2]; T 300.15 K): 1.59 µM
Kd (α-glucosidase [2]; T 305.15 K): 1.62 µM
Kd (α-glucosidase [2]; T 310.15 K): 3.94 µM
Ksv (quenching constant) (α-glucosidase [2]; T 300.15 K): 11.46 ±0.01 104 /M
n (number of binding sites) (α-glucosidase [2]; T 300.15 K): 1.17
Ksv (quenching constant) (α-glucosidase [2]; T 305.15 K): 7.99 ±0.01 104 /M
n (number of binding sites) (α-glucosidase [2]; T 305.15 K): 1.20
Kq (bimolecular quenching constant) (α-glucosidase [2]; T 305.15 K): 7.99 ×10^12 (M·S)-1
Ksv (quenching constant) (α-glucosidase [2]; T 310.15 K): 6.87 ±0.01 104 /M
n (number of binding sites) (α-glucosidase [2]; T 310.15 K): 1.14
Kq (bimolecular quenching constant) (α-glucosidase [2]; T 310.15 K): 6.87 ×10^12 (M·S)-1
IC50 (α-glucosidase [3]): 66.3 ± 7.17 µM
inhibition at 250 µM (α-glucosidase [3]): ~100%
RSQF values, Trp (Δλ = 60 nm) versus Tyr (Δλ = 15 nm) (α-glucosidase [4]): significantly higher

COC(=O)Cn1c(=O)oc2c(C(=O)/C=C/c3cc(F)c(O)c(F)c3)cccc21 [compound 264]
activity (α-glucosidase [5]; [6]): 1

Brc1cccc(CNc2cccc(-c3nc4ccccc4[nH]3)c2)n1 [compound 265]
activity (α-glucosidase [5]; [6]): 1

COc1ccc2nc3cc(Cl)ccc3c(SCC(=O)NCc3cccc(Cl)c3)c2c1 [compound 266]
activity (α-glucosidase [5]; [6]): 1

Cc1cc(C)cc(Cn2cc(COc3ccc(-c4nc(-c5ccccc5)c(-c5ccccc5)[nH]4)cc3)nn2)c1 [compound 267]
activity (α-glucosidase [5]; [6]): 1

O=C(COc1c(I)cc(Cl)c2cccnc12)c1cccc(Br)c1 [compound 268]
activity (α-glucosidase [5]; [6]): 1

Oc1cccc(-c2nnc(/N=C(/CSc3nnc4c(n3)[nH]c3ccccc34)c3ccc(-c4ccccc4)cc3)s2)c1 [compound 269]
activity (α-glucosidase [5]; [6]): 1

COc1cccc(CNc2cccc(-c3nc4ccccc4[nH]3)c2)n1 [compound 270]
activity (α-glucosidase [5]; [6]): 1

O=C1Nc2ccccc2/C1=N/N=C/c1ccc(OCc2cn(Cc3ccc(F)cc3)nn2)cc1 [compound 271]
activity (α-glucosidase [5]; [6]): 1

Cn1ccnc1SC(=O)c1ccc(-c2ccccc2F)o1 [compound 272]
activity (α-glucosidase [5]; [6]): 1

O=C(/C=C/c1ccc(Cl)cc1)c1cc2ccccc2oc1=O [compound 273]
activity (α-glucosidase [5]; [6]): 1

O=C(/C=C/c1ccc(O)c(O)c1)c1cccc2[nH]c(=O)oc12 [compound 274]
activity (α-glucosidase [5]; [6]): 1

Brc1ccc(CNc2cccc(-c3nc4ccccc4[nH]3)c2)cc1 [compound 275]
activity (α-glucosidase [5]; [6]): 1

O=C(COc1c(I)cc(Cl)c2cccnc12)c1ccc(Cl)cc1Cl [compound 276]
activity (α-glucosidase [5]; [6]): 1

Cc1ccc(/C(CSc2nnc3c(n2)[nH]c2ccccc23)=N\c2nnc(-c3ccc(Cl)c(Cl)c3)s2)cc1 [compound 277]
activity (α-glucosidase [5]; [6]): 1

c1ccc(-c2cnc3ccccc3n2)cc1 [compound 278]
activity (α-glucosidase [5]; [6]): 1

COc1ccc(/C=N/N=C(/C)c2ccc([N+](=O)[O-])cc2)cc1 [compound 279]
activity (α-glucosidase [5]; [7]): 1

CC(C)=CCn1c(=O)oc2c(C(=O)/C=C/c3cc(F)c(O)c(F)c3)cccc21 [compound 280]
activity (α-glucosidase [5]; [7]): 1

Cc1ccc(-c2cc(C(F)(F)F)nn2-c2ccc(S(=O)(=O)NC(=O)c3ccc(C)c([N+](=O)[O-])c3)cc2)cc1 [compound 281]
activity (α-glucosidase [5]; [7]): 1

Clc1ccc(-c2cnc3ccccc3n2)c(Cl)c1 [compound 283]
activity (α-glucosidase [5]; [7]): 1

COC(=O)Cn1c(=O)oc2c(C(=O)/C=C/c3ccc(O)c(F)c3)cccc21 [compound 284]
activity (α-glucosidase [5]; [7]): 1

CCC/C=N/N=C(/C)c1ccc([N+](=O)[O-])cc1 [compound 285]
activity (α-glucosidase [5]; [7]): 1

O=[N+]([O-])c1ccc(-c2cnc3ccccc3n2)cc1 [compound 286]
activity (α-glucosidase [5]; [7]): 1

COC(=O)Cn1c(=O)oc2c(C(=O)/C=C/c3ccc(O)cc3)cccc21 [compound 287]
activity (α-glucosidase [5]; [7]): 1

c1ccc(-c2ccc(-c3cnc4ccccc4n3)cc2)cc1 [compound 288]
activity (α-glucosidase [5]; [7]): 1

O=c1c(O)c(-c2ccc(O)c(O)c2)oc2cc(O)cc(O)c12 [compound 289]
activity (α-glucosidase [5]; [7]): 1

Clc1cccc(-c2cnc3ccccc3n2)c1 [compound 290]
activity (α-glucosidase [5]; [7]): 1

COc1ccc(/C=N/N=C(/C)c2ccc([N+](=O)[O-])cc2)c(OC)c1 [compound 291]
activity (α-glucosidase [5]; [7]): 1

CCOC(=O)c1c(SCC(=O)Nc2ccccc2)nnc(-c2ccccc2)c1-c1ccccc1 [compound 292]
activity (α-glucosidase [5]; [7]): 1

CC(C)=CCn1c(=O)oc2c(C(=O)/C=C/c3ccc(O)c(F)c3)cccc21 [compound 293]
activity (α-glucosidase [5]; [7]): 1

Cc1cc2ncc(-c3ccccc3)nc2cc1C [compound 294]
activity (α-glucosidase [5]; [7]): 1

Clc1ccc(-c2cnc3ccccc3n2)cc1Cl [compound 295]
activity (α-glucosidase [5]; [7]): 1

CCOC(=O)c1cc(-c2ccc(Br)cc2)n2nc3ccccc3c2n1 [compound 296]
activity (α-glucosidase [5]; [7]): 1

Cn1ccnc1SC(=O)c1ccc(-c2cccc(Cl)c2)o1 [compound 298]
activity (α-glucosidase [5]; [7]): 1

Cc1ccc(-n2cc(/C=N\NC(=O)Nc3ccccc3)c(-c3ccc([N+](=O)[O-])cc3)n2)cc1 [compound 299]
activity (α-glucosidase [5]; [7]): 1
